Measurements: patent publication US10179160B2, “Therapeutic compositions for the treatment of dry eye disease” (SCHEPENS EYE RESEARCH INSTITUTE, priority 2010, dated 2019)

Assays:
DED mice [1] = experiment: Corneal lymphangiogenesis (lymphatic growth) in DED mice; settings: in vivo blockade of VEGF-C in DED mice
Text: (§1) Eight to ten week-old female C57BLI6 mice (Charles River Laboratory, Wilmington, Mass.) were used in accordance with the standards in the ARVO Statement for the Use of Animals in Ophthalmic and Vision Research. The research protocol was approved by the Schepens Eye Research Institute Animal Care and Use Committee. Dry eye was induced in murine eyes using a Controlled Environment Chamber (CEC) which exposes the mice to high-flow desiccated air. […]
(§2) Freshly excised corneas were washed in PBS, fixed in acetone for 15 minutes and then double stained with CD31 and LYVE-1 as described previously. To analyze infiltration of CD11b^+/LYVE-1 cells, corneas from three mice from each group were taken and cells were counted in 5-6 areas in the periphery ([…] area from the limbus) of each cornea in a masked fashion, using epifluorescence microscope (model E800; Nikon, Melville, N.Y.) at 40× magnification. The mean number of cells was obtained by averaging the total number of cells in all the areas studied and the result was expressed as the number of positive cells per mm^2.
Morphology of lymphatics was analyzed using an automated image analysis program written with Matlab (The Mathworks, Inc., Natick, Mass.). […] The resultant isolated lymphatic vessels were analyzed morphologically using two metrices, Lymphatic Area (LA) and Lymphatic Caliber (LC). […]

DED mice [2] = experiment: Real-time PCR of pro-lymphangiogenic growth factors and receptors in DE corneas; assay type: in vivo; settings: VEGF-C blockade in DED mice
Text: (§3) Eight to ten week-old female C57BLI6 mice (Charles River Laboratory, Wilmington, Mass.) were used in accordance with the standards in the ARVO Statement for the Use of Animals in Ophthalmic and Vision Research. The research protocol was approved by the Schepens Eye Research Institute Animal Care and Use Committee. Dry eye was induced in murine eyes using a Controlled Environment Chamber (CEC) which exposes the mice to high-flow desiccated air. To achieve maximum ocular surface dryness, the conditions in CEC were supplemented with topical application of 1% atropine sulfate (Falcon Pharma, Fort Worth, Tex.) twice for the first 48 hours and subcutaneous injections of 0.1 ml of 5 mg/ml of scopolamine hydrobromide (Sigma-Aldrich, St. Louis, Mo.) three times a day, for the entire duration of the experiment.
Five mice (10 eyes) were included in each group. Two corneas were pooled together to equal as one sample and stored at −80′C in Trizol (Invitrogen, Carlsbad, Calif.; catalog No. 15596026) until future use. Total RNA was isolated from these corneas using the RNeasy microkit (Qiagen, Valencia, Calif.; catalog No. 74004). Equal amounts of RNA were used to synthesize cDNA using SuperScript™ III Reverse Trancriptase (Invitrogen, Carlsbad, Calif.; catalog No. 18080) according to the manufacturer's recommendations. Real-Time PCR was performed using FAM-MGB dye labeled predesigned primers (Applied Biosystem, Foster City, Calif.) for GAPDH (assay ID.Mm999999 15_g1), VEGF-A (Mm00437304_m1), VEGF-C (Mrn00437313_m1), VEGF-D (Mm00438965_m1), VEGFR-2 (Mm00440099_m1), VEGFR-3 (Mm00433337_m1). 2.5 μl of cDNA was loaded in each well and assays were performed in duplicate. The GAPDH gene was used as the endogenous reference for each reaction. […]
(§4) Real time PCR was performed to quantify expression of different VEGF growth factors (VEGF-A, VEGF-C, VEGF-D) and their receptors (VEGFR-2, VEGFR-3) in the cornea at days 6, 10 and 14 (FIG. 8) and to determine the levels of proinflammatory cytokines.

DED mice [3] = experiment: Real-time PCR of IL-17 and IFN-γ in draining lymph nodes of DED mice; assay type: in vivo; settings: anti-VEGF-C treated vs untreated DED mice
Text: as §3
Five mice (10 eyes) were included in each group. […]
(§5) Anti-VEGF-C antibodies (VGX-100; Vegenics Limited, Australia) were administered intraperitonealy daily from day 1 to day 10 to DED mice. Mice were assessed clinically using corneal fluorescent staining. […]
as §4

DED mice [4] = experiment: Real-time PCR of proinflammatory cytokines in conjunctiva of DED mice; assay type: in vivo
Text: as §3
Five mice (10 eyes) were included in each group. Two corneas were pooled together to equal as one sample and stored at −80′C in Trizol (Invitrogen, Carlsbad, Calif.; catalog No. 15596026) until future use. Total RNA was isolated from these corneas using the RNeasy microkit (Qiagen, Valencia, Calif.; catalog No. 74004). Equal amounts of RNA were used to synthesize cDNA using SuperScript™ III Reverse Trancriptase (Invitrogen, Carlsbad, Calif.; catalog No. 18080) according to the manufacturer's recommendations. Real-Time PCR was performed using FAM-MGB dye labeled predesigned primers (Applied Biosystem, Foster City, Calif.) for GAPDH (assay ID.Mm999999 15_g1), VEGF-A (Mm00437304_m1), VEGF-C (Mrn00437313_m1), VEGF-D (Mm00438965_m1), VEGFR-2 (Mm00440099_m1), VEGFR-3 (Mm00433337_m1). 2.5 μl of cDNA was loaded in each well and assays were performed in duplicate. The GAPDH gene was used as the endogenous reference for each reaction. The results were normalized by the cycle threshold (CT) of GAPDH and the relative mRNA level in the normal mice was used as the normalized control.
(§6) Anti-VEGF-C antibodies (VGX-100; Vegenics Limited, Australia) were administered intraperitonealy daily from day 1 to day 10 to DED mice. Mice were assessed clinically using corneal fluorescent staining. Tissues from cornea, conjunctiva and draining lymph nodes were examined for cellular and molecular pathological changes.
as §4

DED mice [5] = experiment: Enumeration of CD11b+ cells in DED corneas (immunohistochemistry); assay type: in vivo
Text: as §1, §2, §5

DED mice [6] = experiment: Corneal fluorescein staining / clinical signs in experimental dry eye murine model; assay type: in vivo; settings: for clinical signs of DED / disease severity: anti-VEGF-C-treated vs untreated DED mice
Text: as §3, §6
Corneal lymphatics play an important role in mediating the corneal inflammation in dry eyes. Experiments: To validate this, inhibition of corneal neolymphangiogenesis was performed in a well characterized mouse model of DED described above. To see if inhibition of corneal neolymphangiogenesis could decrease ocular surface inflammation, anti-VEGF-C antibodies were administered i.p. daily from day −1 to day 10 to DED mice and assessed clinically using corneal fluorescein staining.
Methods (as described previously): Induction of Dry Eye Disease. Experimental Dry Eye Murine Model. Assessment of Corneal Surface: Corneal Fluorescein Staining. Immunohistochemistry: Monocyte/macrophage marker—CD11b; Pan-endothelial marker—CD31; Lymphatic endothelial marker—LYVE-1; Blood vessels: CD31^hi/LYVE-1; Lymph vessels: CD31^lo/LYVE-1^hi. Morphometry of Lymphangiogenesis: Automated image analysis program written using Mat lab. Lymphatic Area (LA)—total surface area of the lymphatic vessels when projected into the plane of the image. Lymphatic Caliber (LC)—measure of the diameters of the lymphatic vessels.
Anti-VEGF-C antibody and treatment regimen. Experimental design: Three groups: Normal, DE group treated with IP normal Saline (Untreated) and DE group treated with anti-VEGF-C antibody (VGX-100; a gift from Vegenics, Australia). Daily IP application of anti-VEGF-C antibody/Normal saline from day −1 to day 13. Dose: […] (20 mg/kg) in […] of Normal Saline.

[7] = real-time PCR, anti-VEGF-C treated vs untreated DED mice

VGX-100: human anti-VEGF-C monoclonal antibody produced by hybridoma ATCC PTA-4095, heavy/light chains SEQ ID NO: 48/49; from Vegenics
corneal lymphangiogenesis / lymphatic growth (DED mice [1]): suppresses
corneal lymphangiogenesis / lymphatic growth (DED mice [1]; listed as anti-VEGF-C): suppression
expression of VEGF-C in DE corneas (DED mice [2]): decrease
expression of VEGF-D in DE corneas (DED mice [2]): decrease
expression of VEGFR-3 (R3) in DE corneas (DED mice [2]): decrease
IFN-γ (Th1 cells) in draining lymph nodes, induction of T-cell mediated autoimmune response (DED mice [3]): significantly decreased induction
IL-17 (Th17 cells) in draining lymph nodes, induction of T-cell mediated autoimmune response (DED mice [3]): significantly decreased induction
mRNA expression levels of proinflammatory cytokines in the conjunctiva (DED mice [4]; VEGF-C blockade in DED mice): decrease
IL-1α expression in conjunctiva (DED mice [4]; [7]): significantly decreased expression
IL-1β expression in conjunctiva (DED mice [4]; [7]): significantly decreased expression
IL-6 expression in conjunctiva (DED mice [4]; [7]): significantly decreased expression
IL-17 expression in conjunctiva (DED mice [4]; [7]): significantly decreased expression
corneal infiltration of CD11b+ cells (DED mice [5]; VEGF-C blockade in DED mice): decrease
decrease of infiltration of CD11b+ cells in the DED corneas (DED mice [5]; day 14): 30%
corneal epitheliopathy (DED mice [6]; VEGF-C blockade in DED mice): decrease
Corneal fluorescein staining (CFS) score (DED mice [6]; anti-VEGF-C Ab-treated vs untreated DED mice, days 5, 9 and 13, daily IP, 20 mg/kg): significantly decreased
clinical signs of DED / disease severity (DED mice [6]; daily IP): ameliorates
clinical signs of DED / disease severity (DED mice [6]; daily IP, listed as anti-VEGF-C): significant decrease
